How the values were obtained:
[1] = test system: Receptor-type tyrosine-protein kinase FLT3 (Homo sapiens), P36888 [D835H]; details: Compound concentration 1000.0 nM
[2] = biological target: Death-associated protein kinase 2 (Homo sapiens) (UniProt Q9UIK4); details: Compound concentration 1000.0 nM
[3] = biological target: Mitogen-activated protein kinase 3 (Homo sapiens) (UniProt P27361); details: Compound concentration 1000.0 nM
[4] = biological target: STE20/SPS1-related proline-alanine-rich protein kinase (Homo sapiens) (UniProt Q9UEW8); details: Compound concentration 1000.0 nM
[5] = test system: Epidermal growth factor receptor (Homo sapiens), P00533 [UNDEFINED MUTATION]; details: Compound concentration 1000.0 nM
[6] = biological target: Receptor-type tyrosine-protein kinase FLT3 (Homo sapiens) (UniProt P36888); details: Compound concentration 1000.0 nM
[7] = biological target: Epithelial discoidin domain-containing receptor 1 (Homo sapiens) (UniProt Q08345); details: Compound concentration 1000.0 nM
Epithelial discoidin domain-containing receptor 1 (Homo sapiens), sequence (Q08345 whole entry, the tested form may be a part): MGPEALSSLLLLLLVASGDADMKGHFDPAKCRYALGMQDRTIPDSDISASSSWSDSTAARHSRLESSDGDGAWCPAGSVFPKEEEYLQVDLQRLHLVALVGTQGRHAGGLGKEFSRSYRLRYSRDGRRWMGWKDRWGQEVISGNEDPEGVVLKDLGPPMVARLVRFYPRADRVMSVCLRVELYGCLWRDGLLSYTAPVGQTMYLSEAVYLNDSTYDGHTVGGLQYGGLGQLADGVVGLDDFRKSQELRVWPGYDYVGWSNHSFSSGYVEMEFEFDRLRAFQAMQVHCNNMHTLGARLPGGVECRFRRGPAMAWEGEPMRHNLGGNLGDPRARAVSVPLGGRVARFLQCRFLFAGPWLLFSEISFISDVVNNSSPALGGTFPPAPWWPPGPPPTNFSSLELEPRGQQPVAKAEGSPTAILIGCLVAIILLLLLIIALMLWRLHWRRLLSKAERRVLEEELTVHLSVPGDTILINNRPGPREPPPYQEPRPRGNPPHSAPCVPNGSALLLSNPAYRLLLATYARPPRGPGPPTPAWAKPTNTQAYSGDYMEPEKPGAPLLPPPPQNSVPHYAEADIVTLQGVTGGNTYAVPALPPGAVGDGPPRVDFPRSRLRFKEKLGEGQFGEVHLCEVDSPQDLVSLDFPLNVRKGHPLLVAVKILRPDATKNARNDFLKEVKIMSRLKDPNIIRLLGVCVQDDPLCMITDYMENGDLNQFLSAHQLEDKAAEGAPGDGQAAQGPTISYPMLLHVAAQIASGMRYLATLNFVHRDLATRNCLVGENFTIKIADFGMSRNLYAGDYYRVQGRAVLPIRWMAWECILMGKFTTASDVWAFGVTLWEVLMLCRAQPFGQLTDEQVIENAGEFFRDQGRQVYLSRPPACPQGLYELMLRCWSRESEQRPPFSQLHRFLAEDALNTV

[8] = biological target: Calcium/calmodulin-dependent protein kinase kinase 2 (Homo sapiens) (UniProt Q96RR4); details: Compound concentration 1000.0 nM
[9] = biological target: Sigma non-opioid intracellular receptor 1 (Homo sapiens, UniProt Q99720); details: Compound concentration 10.0 uM
Sigma non-opioid intracellular receptor 1, sequence (Q99720 whole entry, canonical isoform): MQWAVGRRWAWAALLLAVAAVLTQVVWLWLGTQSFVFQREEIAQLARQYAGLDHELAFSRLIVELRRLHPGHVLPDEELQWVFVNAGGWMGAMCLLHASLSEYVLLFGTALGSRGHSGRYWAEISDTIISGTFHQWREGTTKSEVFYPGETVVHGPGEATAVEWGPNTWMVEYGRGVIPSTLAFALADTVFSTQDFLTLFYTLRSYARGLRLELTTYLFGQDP

[10] = test system: Phosphatidylinositol 4,5-bisphosphate 3-kinase catalytic subunit alpha isoform (Homo sapiens), P42336 [Q546K]; details: Compound concentration 1000.0 nM
[11] = biological target: Microtubule-associated serine/threonine-protein kinase 1 (Homo sapiens) (UniProt Q9Y2H9); details: Compound concentration 1000.0 nM
[12] = biological target: Calcium/calmodulin-dependent protein kinase type II subunit alpha (Homo sapiens) (UniProt Q9UQM7); details: Compound concentration 1000.0 nM
[13] = biological target: Tyrosine-protein kinase JAK2 (Homo sapiens) (UniProt O60674); details: Compound concentration 1000.0 nM
[14] = biological target: Phosphorylase b kinase regulatory subunit alpha, liver isoform (Homo sapiens) (UniProt P46019); details: Compound concentration 1000.0 nM
Phosphorylase b kinase regulatory subunit alpha, liver isoform (Homo sapiens), sequence (P46019 whole entry, canonical isoform): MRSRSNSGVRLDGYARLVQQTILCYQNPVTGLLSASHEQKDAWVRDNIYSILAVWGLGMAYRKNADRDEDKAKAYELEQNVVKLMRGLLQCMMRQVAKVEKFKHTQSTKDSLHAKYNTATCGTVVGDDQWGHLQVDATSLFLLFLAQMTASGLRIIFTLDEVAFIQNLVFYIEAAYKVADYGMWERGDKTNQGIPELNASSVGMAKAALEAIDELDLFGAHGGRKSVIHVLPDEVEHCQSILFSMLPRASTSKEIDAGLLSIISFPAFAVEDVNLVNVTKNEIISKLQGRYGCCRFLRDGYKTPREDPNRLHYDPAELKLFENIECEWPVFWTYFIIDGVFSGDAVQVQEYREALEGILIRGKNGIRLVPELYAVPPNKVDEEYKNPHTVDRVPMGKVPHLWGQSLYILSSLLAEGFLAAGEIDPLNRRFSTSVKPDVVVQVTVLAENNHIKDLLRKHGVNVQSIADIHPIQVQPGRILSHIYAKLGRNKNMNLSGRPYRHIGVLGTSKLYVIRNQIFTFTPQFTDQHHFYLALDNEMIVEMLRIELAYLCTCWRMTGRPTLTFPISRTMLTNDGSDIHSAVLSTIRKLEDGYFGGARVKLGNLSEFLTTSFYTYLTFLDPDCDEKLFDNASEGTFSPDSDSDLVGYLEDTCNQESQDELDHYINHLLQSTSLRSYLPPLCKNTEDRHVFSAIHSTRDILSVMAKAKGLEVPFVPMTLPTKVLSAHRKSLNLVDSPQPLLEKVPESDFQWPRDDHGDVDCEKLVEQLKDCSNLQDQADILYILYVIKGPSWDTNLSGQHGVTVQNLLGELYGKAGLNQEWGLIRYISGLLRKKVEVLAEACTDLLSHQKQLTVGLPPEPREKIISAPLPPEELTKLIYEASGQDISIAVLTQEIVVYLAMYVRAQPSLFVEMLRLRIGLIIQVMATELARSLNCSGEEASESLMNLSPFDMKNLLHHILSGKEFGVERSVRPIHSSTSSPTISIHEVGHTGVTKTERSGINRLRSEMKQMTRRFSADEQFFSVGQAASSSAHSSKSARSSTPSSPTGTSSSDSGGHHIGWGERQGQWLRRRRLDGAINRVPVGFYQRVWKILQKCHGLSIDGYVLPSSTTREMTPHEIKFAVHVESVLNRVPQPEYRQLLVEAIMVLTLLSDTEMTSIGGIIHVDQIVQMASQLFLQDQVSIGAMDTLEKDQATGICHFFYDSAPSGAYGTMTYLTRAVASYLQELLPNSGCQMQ

[15] = biological target: T1, 5-hydroxytryptamine receptor 1A (Homo sapiens) (UniProt P08908); details: Compound concentration 10.0 uM
T1 sequence (whole entry): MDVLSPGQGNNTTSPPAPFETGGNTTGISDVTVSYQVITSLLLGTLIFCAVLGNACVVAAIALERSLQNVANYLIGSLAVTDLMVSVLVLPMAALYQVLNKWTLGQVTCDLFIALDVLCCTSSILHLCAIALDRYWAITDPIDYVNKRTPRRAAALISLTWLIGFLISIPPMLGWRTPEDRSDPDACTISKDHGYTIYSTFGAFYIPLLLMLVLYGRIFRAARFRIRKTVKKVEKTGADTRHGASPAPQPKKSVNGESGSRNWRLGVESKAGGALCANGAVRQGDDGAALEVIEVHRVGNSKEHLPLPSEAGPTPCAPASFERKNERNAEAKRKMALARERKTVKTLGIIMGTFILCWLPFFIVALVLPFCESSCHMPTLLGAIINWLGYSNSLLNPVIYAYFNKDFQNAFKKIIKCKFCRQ

[16] = biological target: Tyrosine-protein kinase HCK (Homo sapiens) (UniProt P08631); details: Compound concentration 1000.0 nM
[17] = biological target: Phosphatidylinositol 5-phosphate 4-kinase type-2 gamma (Homo sapiens) (UniProt Q8TBX8); details: Compound concentration 1000.0 nM
[18] = biological target: D(2) dopamine receptor (Homo sapiens) (UniProt P14416); details: Compound concentration 10.0 uM
[19] = biological target: Serine/threonine-protein kinase PLK1 (Homo sapiens) (UniProt P53350); details: Compound concentration 1000.0 nM
[20] = biological target: Aurora kinase B (Homo sapiens) (UniProt Q96GD4); details: Compound concentration 1000.0 nM
[21] = test system: Tyrosine-protein kinase ABL1 (Homo sapiens), P00519 [F317I]; details: Compound concentration 1000.0 nM
[22] = biological target: Serine/threonine-protein kinase haspin (Homo sapiens) (UniProt Q8TF76); details: Compound concentration 1000.0 nM
[23] = biological target: Rho-associated protein kinase 2 (Homo sapiens) (UniProt O75116); details: Compound concentration 1000.0 nM
[24] = biological target: Phosphatidylinositol 4-phosphate 3-kinase C2 domain-containing subunit beta (Homo sapiens) (UniProt O00750); details: Compound concentration 1000.0 nM
[25] = test system: Tyrosine-protein kinase ABL1 (Homo sapiens), P00519 [Q252H]; details: Compound concentration 1000.0 nM
[26] = biological target: Ribosomal protein S6 kinase alpha-2 (Homo sapiens) (UniProt Q15349); details: Compound concentration 1000.0 nM
[27] = biological target: Serine/threonine-protein kinase TAO1 (Homo sapiens) (UniProt Q7L7X3); details: Compound concentration 1000.0 nM
[28] = biological target: Serine/threonine-protein kinase PAK 6 (Homo sapiens) (UniProt Q9NQU5); details: Compound concentration 1000.0 nM
Serine/threonine-protein kinase PAK 6 (Homo sapiens), sequence (Q9NQU5 whole entry, looked up): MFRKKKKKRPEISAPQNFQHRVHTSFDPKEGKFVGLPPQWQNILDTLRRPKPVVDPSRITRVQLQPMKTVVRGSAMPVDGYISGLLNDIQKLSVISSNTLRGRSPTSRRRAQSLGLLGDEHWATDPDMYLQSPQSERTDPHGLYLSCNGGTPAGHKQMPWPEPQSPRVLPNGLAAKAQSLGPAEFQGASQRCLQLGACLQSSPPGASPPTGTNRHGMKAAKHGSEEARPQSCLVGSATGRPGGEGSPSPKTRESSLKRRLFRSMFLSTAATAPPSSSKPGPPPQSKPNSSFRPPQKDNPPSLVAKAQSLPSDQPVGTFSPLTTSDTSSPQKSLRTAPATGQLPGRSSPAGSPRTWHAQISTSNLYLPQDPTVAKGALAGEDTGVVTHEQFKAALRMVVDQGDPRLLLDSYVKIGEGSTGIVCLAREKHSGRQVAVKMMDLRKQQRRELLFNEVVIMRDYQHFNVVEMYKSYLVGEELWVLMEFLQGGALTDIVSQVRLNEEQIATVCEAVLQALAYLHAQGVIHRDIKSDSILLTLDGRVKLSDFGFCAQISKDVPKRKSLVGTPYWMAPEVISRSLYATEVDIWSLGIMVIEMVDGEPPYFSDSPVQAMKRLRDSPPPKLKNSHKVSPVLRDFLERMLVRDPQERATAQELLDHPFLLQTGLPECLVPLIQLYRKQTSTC

[29] = biological target: MAP kinase-interacting serine/threonine-protein kinase 2 (Homo sapiens) (UniProt Q9HBH9); details: Compound concentration 1000.0 nM
[30] = biological target: Kappa-type opioid receptor (Homo sapiens, UniProt P41145); details: Compound concentration 10.0 uM
[31] = biological target: Mitogen-activated protein kinase kinase kinase 13 (Homo sapiens) (UniProt O43283); details: Compound concentration 1000.0 nM
Mitogen-activated protein kinase kinase kinase 13 (Homo sapiens), sequence (O43283 whole entry, canonical isoform): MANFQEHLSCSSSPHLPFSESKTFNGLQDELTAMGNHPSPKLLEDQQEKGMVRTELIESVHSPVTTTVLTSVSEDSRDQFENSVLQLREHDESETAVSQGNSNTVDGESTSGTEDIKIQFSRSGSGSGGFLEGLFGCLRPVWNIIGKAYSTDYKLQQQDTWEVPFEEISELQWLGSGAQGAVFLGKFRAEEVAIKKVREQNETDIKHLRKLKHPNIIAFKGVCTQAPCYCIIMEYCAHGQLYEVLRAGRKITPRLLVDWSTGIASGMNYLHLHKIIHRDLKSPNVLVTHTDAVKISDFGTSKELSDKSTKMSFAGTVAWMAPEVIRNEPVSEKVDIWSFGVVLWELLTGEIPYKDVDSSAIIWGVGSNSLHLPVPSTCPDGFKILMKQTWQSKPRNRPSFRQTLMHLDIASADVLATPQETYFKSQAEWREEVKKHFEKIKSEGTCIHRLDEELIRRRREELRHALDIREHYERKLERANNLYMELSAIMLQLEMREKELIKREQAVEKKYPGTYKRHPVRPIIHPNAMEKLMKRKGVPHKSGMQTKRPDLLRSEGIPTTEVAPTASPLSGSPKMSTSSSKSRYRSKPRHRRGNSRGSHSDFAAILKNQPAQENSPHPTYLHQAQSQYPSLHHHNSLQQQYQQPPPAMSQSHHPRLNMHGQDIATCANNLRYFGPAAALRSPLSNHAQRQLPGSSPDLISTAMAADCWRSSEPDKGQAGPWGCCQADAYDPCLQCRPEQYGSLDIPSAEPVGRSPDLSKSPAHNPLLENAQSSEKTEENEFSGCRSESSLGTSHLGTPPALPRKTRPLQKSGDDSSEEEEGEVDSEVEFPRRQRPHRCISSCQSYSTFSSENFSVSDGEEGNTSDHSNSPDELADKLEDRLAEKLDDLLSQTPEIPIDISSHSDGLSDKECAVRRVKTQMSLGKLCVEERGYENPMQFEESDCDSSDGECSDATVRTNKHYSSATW

[32] = biological target: Casein kinase I isoform alpha (Homo sapiens) (UniProt P48729); details: Compound concentration 1000.0 nM
[33] = biological target: Dual specificity mitogen-activated protein kinase kinase 1 (Homo sapiens) (UniProt Q02750); details: Compound concentration 1000.0 nM
[34] = biological target: Sigma intracellular receptor 2 (Homo sapiens, UniProt Q5BJF2); details: Compound concentration 10.0 uM
[35] = biological target: Hepatocyte growth factor receptor (Homo sapiens) (UniProt P08581); details: Compound concentration 1000.0 nM
[36] = biological target: MAP kinase-activated protein kinase 2 (Homo sapiens) (UniProt P49137); details: Compound concentration 1000.0 nM
[37] = biological target: Mitogen-activated protein kinase kinase kinase 1 (Homo sapiens) (UniProt Q13233); details: Compound concentration 1000.0 nM
[38] = biological target: Serine/threonine-protein kinase MAK (Homo sapiens) (UniProt P20794); details: Compound concentration 1000.0 nM
Serine/threonine-protein kinase MAK (Homo sapiens), sequence (P20794 whole entry): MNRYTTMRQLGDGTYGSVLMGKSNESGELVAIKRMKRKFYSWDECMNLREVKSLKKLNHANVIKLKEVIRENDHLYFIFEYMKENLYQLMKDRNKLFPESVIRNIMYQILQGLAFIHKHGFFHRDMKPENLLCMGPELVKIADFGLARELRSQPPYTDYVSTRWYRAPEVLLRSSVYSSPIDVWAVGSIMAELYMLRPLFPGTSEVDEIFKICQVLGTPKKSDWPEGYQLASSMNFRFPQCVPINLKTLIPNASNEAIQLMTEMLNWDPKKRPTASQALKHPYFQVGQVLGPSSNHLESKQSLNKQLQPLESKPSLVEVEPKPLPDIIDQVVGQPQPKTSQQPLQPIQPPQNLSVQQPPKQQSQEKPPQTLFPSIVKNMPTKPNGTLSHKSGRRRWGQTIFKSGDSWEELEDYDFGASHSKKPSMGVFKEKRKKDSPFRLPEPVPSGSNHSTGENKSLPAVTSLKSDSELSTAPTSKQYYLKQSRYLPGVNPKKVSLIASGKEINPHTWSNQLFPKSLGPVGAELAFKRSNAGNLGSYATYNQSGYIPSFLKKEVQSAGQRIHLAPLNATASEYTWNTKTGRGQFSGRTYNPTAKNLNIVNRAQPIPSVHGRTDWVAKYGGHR

[39] = biological target: Homeodomain-interacting protein kinase 4 (Homo sapiens) (UniProt Q8NE63); details: Compound concentration 1000.0 nM

Death-associated protein kinase 2 (Homo sapiens), sequence (Q9UIK4 whole entry, looked up): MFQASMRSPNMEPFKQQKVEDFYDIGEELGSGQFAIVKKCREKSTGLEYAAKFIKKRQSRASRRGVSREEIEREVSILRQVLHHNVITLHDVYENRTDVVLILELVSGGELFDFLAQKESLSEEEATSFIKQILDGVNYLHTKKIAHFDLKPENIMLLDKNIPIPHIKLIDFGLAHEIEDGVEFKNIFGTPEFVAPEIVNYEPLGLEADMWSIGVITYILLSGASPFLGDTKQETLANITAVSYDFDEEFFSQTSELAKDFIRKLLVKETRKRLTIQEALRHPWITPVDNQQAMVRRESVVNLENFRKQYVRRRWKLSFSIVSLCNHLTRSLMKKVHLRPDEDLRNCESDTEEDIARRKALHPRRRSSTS

| SMILES | residual activity [1] [%] | residual activity [2] [%] | residual activity [3] [%] | residual activity [4] [%] | residual activity [5] [%] | residual activity [6] [%] | residual activity [7] [%] | residual activity [8] [%] | inhibition [9] [%] | residual activity [10] [%] | residual activity [11] [%] | residual activity [12] [%] | residual activity [13] [%] | residual activity [14] [%] | inhibition [15] [%] | residual activity [16] [%] | residual activity [17] [%] | inhibition [18] [%] | residual activity [19] [%] | residual activity [20] [%] | further results |
| --- | --- | --- | --- | --- | --- | --- | --- | --- | --- | --- | --- | --- | --- | --- | --- | --- | --- | --- | --- | --- | --- |
| O=C(Nc1ccc(Oc2ccc(F)cc2)cc1)N1CCc2ncccc2[C@H]1c1ccc(F)cc1 [BAY-897] | 86 | 100 | 87 | 82 | 100 | 77 | 100 | 100 | 73.4 | 75 | 79 | 88 | 100 | 100 | -3.56 | 100 | 94 | -3.97 | 78 | 89 | residual activity [21]: 100%; residual activity [22]: 85%; residual activity [23]: 93%; residual activity [24]: 96%; residual activity [25]: 88%; residual activity [26]: 94%; residual activity [27]: 100%; residual activity [28]: 100%; residual activity [29]: 91%; inhibition [30]: 79.3%; residual activity [31]: 98%; residual activity [32]: 97%; residual activity [33]: 98%; inhibition [34]: 80.8%; residual activity [35]: 100%; residual activity [36]: 98%; residual activity [37]: 87%; residual activity [38]: 100%; residual activity [39]: 96% |
| O=C(Nc1cnc(Oc2ccc(F)cc2)nc1)N1CCc2ncccc2[C@@H]1c1ccc(F)cc1 [BAY-899] | 100 | 91 | 92 | 77 | 100 | 84 | 95 | 93 | 64.4 | 95 | 96 | 92 | 84 | 96 | -8.97 | 96 | 86 | 1.65 | 80 | 80 | residual activity [21]: 100%; residual activity [22]: 93%; residual activity [23]: 100%; residual activity [24]: 95%; residual activity [25]: 100%; residual activity [26]: 79%; residual activity [27]: 100%; residual activity [28]: 100%; residual activity [29]: 94%; inhibition [30]: 56.3%; residual activity [31]: 88%; residual activity [32]: 85%; residual activity [33]: 93%; inhibition [34]: 53.2%; residual activity [35]: 100%; residual activity [36]: 80%; residual activity [37]: 89%; residual activity [38]: 100%; residual activity [39]: 100% |
